Measured values from ChEMBL document CHEMBL5370646, “Synthesis and Conformational Analysis of FR901464-Based RNA Splicing Modulators and Their Synergism in Drug-Resistant Cancers” (J Med Chem, 2023).

Legend:
[1] = Synergistic antiproliferative activity against human Osimertinib-resistant HCC827AR cell assessed as combination index at 2 nM incubated for 72 hrs in presence of 1 uM osimertinib by WST-1 assay; assay type: functional
DMS-53 [2] = test: Synergistic antiproliferative activity against human DMS-53 cells assessed as combination index at 1 nM incubated for 72 hrs in presence of […] venetoclax by WST-1 assay; assay type: functional
DMS-114 [3] = test: Synergistic antiproliferative activity against human DMS-114 cells assessed as combination index at 2 nM incubated for 72 hrs in presence of 3.6 uM venetoclax by WST-1 assay; assay type: functional
[4] = Synergistic antiproliferative activity against human Osimertinib-resistant HCC827AR cell assessed as combination index at 1.5 nM incubated for 72 hrs in presence of 1 uM osimertinib by WST-1 assay; assay type: functional
[5] = Synergistic antiproliferative activity against human Osimertinib-resistant HCC827AR cell assessed as combination index at 1 nM incubated for 72 hrs in presence of 0.25 uM osimertinib by WST-1 assay; assay type: functional
DMS-53 [6] = test: Synergistic antiproliferative activity against human DMS-53 cells assessed as combination index at 0.5 nM incubated for 72 hrs in presence of 50 uM venetoclax by WST-1 assay; assay type: functional
[7] = Synergistic antiproliferative activity against human Osimertinib-resistant HCC827AR cell assessed as combination index at 1 nM incubated for 72 hrs in presence of 1 uM osimertinib by WST-1 assay; assay type: functional
[8] = Synergistic antiproliferative activity against human Osimertinib-resistant HCC827AR cell assessed as combination index at 1 nM incubated for 72 hrs in presence of 4 uM osimertinib by WST-1 assay; assay type: functional
DMS-53 [9] = test: Synergistic antiproliferative activity against human DMS-53 cells assessed as combination index at 2 nM incubated for 72 hrs in presence of 25 […] by WST-1 assay; assay type: functional
DMS-53 [10] = test: Synergistic antiproliferative activity against human DMS-53 cells assessed as combination index at 1.5 nM incubated for 72 hrs in presence of […] venetoclax by WST-1 assay; assay type: functional
DMS-114 [11] = test: Growth inhibition of human DMS-114 cells assessed as reduction in cell viability incubated for 72 hrs; assay type: functional
DMS-53 [12] = test: Synergistic antiproliferative activity against human DMS-53 cells assessed as combination index at 1.5 nM incubated for 72 hrs in presence of 25 uM venetoclax by WST-1 assay; assay type: functional
DMS-114 [13] = test: Synergistic antiproliferative activity against human DMS-114 cells assessed as combination index at 1 nM incubated for 72 hrs in presence of 4.8 uM venetoclax by WST-1 assay; assay type: functional
[14] = Synergistic antiproliferative activity against human Osimertinib-resistant HCC827AR cell assessed as combination index at 2.5 nM incubated for 72 hrs in presence of 0.25 uM osimertinib by WST-1 assay; assay type: functional
DMS-53 [15] = test: Synergistic antiproliferative activity against human DMS-53 cells assessed as combination index at 2 nM incubated for 72 hrs in presence of 200 […] by WST-1 assay; assay type: functional
DMS-53 [16] = test: Synergistic antiproliferative activity against human DMS-53 cells assessed as combination index at 1.5 nM incubated for 72 hrs in presence of 50 uM venetoclax by WST-1 assay; assay type: functional
DMS-114 [17] = test: Synergistic antiproliferative activity against human DMS-114 cells assessed as combination index at 1 nM incubated for 72 hrs in presence of 3.6 uM venetoclax by WST-1 assay; assay type: functional
DMS-53 [18] = test: Synergistic antiproliferative activity against human DMS-53 cells assessed as combination index at 0.5 nM incubated for 72 hrs in presence of […] venetoclax by WST-1 assay; assay type: functional
[19] = Synergistic antiproliferative activity against human Osimertinib-resistant HCC827AR cell assessed as combination index at 1.5 nM incubated for 72 hrs in presence of 4 uM osimertinib by WST-1 assay; assay type: functional
[20] = Growth inhibition of mouse FL83B cells assessed as reduction in cell viability incubated for 72 hrs; assay type: toxicity, cell-based
[21] = Synergistic antiproliferative activity against human Osimertinib-resistant HCC827AR cell assessed as combination index at 2 nM incubated for 72 hrs in presence of 0.25 uM osimertinib by WST-1 assay; assay type: functional
DMS-53 [22] = test: Synergistic antiproliferative activity against human DMS-53 cells assessed as combination index at 1 nM incubated for 72 hrs in presence of […] venetoclax by WST-1 assay; assay type: functional
[23] = Synergistic antiproliferative activity against human Osimertinib-resistant HCC827AR cell assessed as combination index at 2.5 nM incubated for 72 hrs in presence of 4 uM osimertinib by WST-1 assay; assay type: functional
DMS-53 [24] = test: Synergistic antiproliferative activity against human DMS-53 cells assessed as combination index at 0.5 nM incubated for 72 hrs in presence of […] venetoclax by WST-1 assay; assay type: functional
A549 = test: Growth inhibition of human A549 cells assessed as reduction in cell viability incubated for 72 hrs; assay type: functional
DMS-53 [25] = test: Synergistic antiproliferative activity against human DMS-53 cells assessed as combination index at 0.5 nM incubated for 72 hrs in presence of […] venetoclax by WST-1 assay; assay type: functional
DMS-114 [26] = test: Synergistic antiproliferative activity against human DMS-114 cells assessed as combination index at 3 nM incubated for 72 hrs in presence of 4.8 uM venetoclax by WST-1 assay; assay type: functional
DMS-114 [27] = test: Synergistic antiproliferative activity against human DMS-114 cells assessed as combination index at 1 nM incubated for 72 hrs in presence of 6 uM venetoclax by WST-1 assay; assay type: functional
DMS-114 [28] = test: Synergistic antiproliferative activity against human DMS-114 cells assessed as combination index at 2 nM incubated for 72 hrs in presence of 4.8 uM venetoclax by WST-1 assay; assay type: functional
DMS-114 [29] = test: Synergistic antiproliferative activity against human DMS-114 cells assessed as combination index at 3 nM incubated for 72 hrs in presence of 12 uM venetoclax by WST-1 assay; assay type: functional

GI50 (A549): 3.9 nM
Compound: COCO[C@@H](C)/C=C\C(=O)N[C@@H]1C[C@H](C)[C@H](C/C=C(C)/C=C/[C@H]2OC(C)(C)C[C@@]3(CO3)[C@@H]2O)O[C@@H]1C
CI [1]: 1.2 | CI (DMS-53 [2]): 1.26 | CI (DMS-114 [3]): 0.63 | CI [4]: 1.5 | CI [5]: 1.06 | CI (DMS-53 [6]): 1.26 | CI [7]: 1.48 | CI [8]: 0.93 | CI (DMS-53 [9]): 0.58 | CI (DMS-53 [10]): 0.51 | GI50 (DMS-114 [11]): 2.3 nM | CI (DMS-53 [12]): 0.7 | CI (DMS-114 [13]): 1.3 | CI [14]: 0.83 | CI (DMS-53 [15]): 0.4 | CI (DMS-53 [16]): 0.63 | CI (DMS-114 [17]): 1.34 | CI (DMS-53 [18]): 1.52 | CI [19]: 0.92 | GI50 at 72 h [20]: 5.7 nM | CI [21]: 0.97 | CI (DMS-53 [22]): 0.91 | CI [23]: 0.83 | CI (DMS-53 [24]): 1.35 | CI (DMS-53 [25]): 1.6 | CI (DMS-114 [26]): 0.21 | CI (DMS-114 [27]): 1.46 | CI (DMS-114 [28]): 0.66 | CI (DMS-114 [29]): 0.14
